Assay [1] concerns the target type L calcium channels. The experiment in a line: Binding: displacement of [3H] D888 at the Ca2+ channel. The following applies: read-out: K0.5 (50% of specifically fixed radioactivity displaced). (Displacement assays read how much labelled ligand stays bound in the presence of the test substance.)
Another assay concerns the target T1, type L Ca^2+ channel (Rattus norvegicus, UniProt P22002).
T1 construct: cell lines from the aorta of newly born rats; host or cells: A7 r5
The experiment in a line: Inhibition of 45Ca2+ influx through the Ca2+ channel in A7 r5 cells. The following applies: 45Ca2+ influx, A7 r5 cells; read-out: K0.5 (50% of 45Ca2+ influx inhibited). Type of assay: cell-based.

Another assay deals with human LDL's. The experiment in a line: Oxidative modification of human LDL's by copper sulphate (MDA production). Type of assay: biochemical. The following applies: for IC50: read-out: IC50 (reduction of MDA production by 50%), Cu2+ (copper sulphate 5×10^-6 M), 24 hours. As to the method: Human LDL's are incubated for 24 hours in the presence of copper sulphate (5×10^-6 M) and in the absence or in the presence of the test compounds (10^-7 M to 10^-4 M).
After incubation, the peroxidation of the LDL's is evaluated by agar gel electrophoresis and by the formation of one of the products of lipid peroxidation: malondialdehyde (MDA) (Parthasarathy S., Young S. G., Witztum J. L., Pittman R. C. and Steinberg D.; J. Clin. Invest. 77, 641-644, 1986).

A further assay concerns the target Beta adrenergic β. The experiment in a line: Binding to neurotransmitter receptors: beta adrenergic ([3H] DHA). The following applies: read-out: K0.5.
Assay [2] addresses T2, type L calcium channels (Oryctolagus cuniculus, UniProt P07293).
T2 construct: microsomal fractions enriched with type L calcium channels; from tissue; host or cells: microsomal fractions
The experiment in a line: Binding: displacement of [3H] PN 200-110 at the Ca2+ channel.

In assay [3] the test system is cardiac cells. The experiment in a line: Protection of cardiac cells from necrosis induced by intracellular acidosis (αHBDH release). The following applies: Rattus norvegicus, Cardiomyocyte. In kind it is cell-based, rat. As to the method:
a) Cardiac cells: the cardiac cells are prepared from the hearts of newly born (3 days) Wistar rats in accordance with the technique of RENAUD JF., MEAUX JP., ROMEY G., SCHMID A., LAZDUNSKI M., Activation of the voltage-dependent Ca^2+ channels in rat heart cells by dihydropyridine derivative--Biochem. Biophys. Res. Commun., 125, 405-412 (1984).
The cardiomyocytes are isolated from the ventricles by enzymatic dissociation and cultured at 185,000 cells/cm^2. The cells are kept at 37° C. under an air/CO2 atmosphere (95 V/5 V) saturated with water. The cardiomyocytes are used between the 3rd and 8th day following culturing.
Intracellular acidosis is induced in accordance with the conditions published by RENAUD JF., Internal pH Na^+ and Ca^2+ regulation by trimetazidine during cardiac cell acidosis. Cardiovasc. Drugs and Ther., 1, 667-686 (1988) in the presence or absence of the products to be tested. Cellular necrosis is evaluated by measuring by spectrophotometry using the Boerhinger 124800 kit the kinetics of the release of a cytosolic enzyme α-hydroxybutyrate dehydrogenase (αHBDH) into the extracellular medium.
The signal measured corresponds to the amplitude of the necrosis induced by the acidosis. The values are the means ±SD. The number of experiments is indicated in parentheses.

In assay [4] the test system is cardiac cells. The experiment in a line: Oxidative necrosis of cardiac cells induced by hypoxanthine/xanthine oxidase (α-HBDH release). Type of assay: cell-based, rat. The note with it: for activity at 10 µM / activity at 1 µM / activity at 0.1 µM / inhibition at 1 µM: Rattus norvegicus, Cardiomyocyte, 4 h; for activity at 10 µM / activity at 1 µM / activity at 0.1 µM / necrosis index: XO + HX, control XO + HX = 100, mean ±SD; for activity at 10 µM / activity at 1 µM / activity at 0.1 µM: read-out: necrosis index; for inhibition at 1 µM: from 10^-6 M, read-out: reduction of oxidative necrosis of the cardiomyocytes; for necrosis index: 240 min. As to the method:
Cardiac cells of newly born rats are used between the 5th and 7th day following culturing. Oxidative necrosis is induced by the enzymatic production system of hypoxanthine free radicals (HX, 1 mM) and xanthine oxidase (XO, 10 mU/ml). The necrosis is evaluated 4 hours after the addition of XO/HX by measuring by spectrophotometry the cytosolic α-hydroxybutyrate dehydrogenase (α-HBDH) activity released into the supernatant liquor. Two reference molecules (Probucol, vitamin E) and two molecules representative of the present invention (corresponding to Examples 13 and 19) were tested. The cells are treated with the molecules 16 hours and 1 hour before the start of the experiment after renewal of the medium. At the start of the experiment, the treatment is repeated one last time.
The necrosis index 100 corresponds to the release of 46.7±5.3% of the cytosolic content of α-HBDH into the supernatant liquor in 4 hours.
The results are expressed as the mean ±SD (2<n≤4, 3 to 4 repetitions per experiment).

A further assay has as its target Alpha adrenergic α2. As to the kind of experiment: Binding to neurotransmitter receptors: alpha2 adrenergic ([3H] Rauwolscine). The note with it: α2, [3H] Rauwolscine; read-out: K0.5.
The mark [5] stands for this setting: read-out: amplitude of the necrosis induced by the acidosis.

Counter-ions that a name gives are not always drawn. Bounds are passed on as bounds.

T2 sequence (P07293 whole entry): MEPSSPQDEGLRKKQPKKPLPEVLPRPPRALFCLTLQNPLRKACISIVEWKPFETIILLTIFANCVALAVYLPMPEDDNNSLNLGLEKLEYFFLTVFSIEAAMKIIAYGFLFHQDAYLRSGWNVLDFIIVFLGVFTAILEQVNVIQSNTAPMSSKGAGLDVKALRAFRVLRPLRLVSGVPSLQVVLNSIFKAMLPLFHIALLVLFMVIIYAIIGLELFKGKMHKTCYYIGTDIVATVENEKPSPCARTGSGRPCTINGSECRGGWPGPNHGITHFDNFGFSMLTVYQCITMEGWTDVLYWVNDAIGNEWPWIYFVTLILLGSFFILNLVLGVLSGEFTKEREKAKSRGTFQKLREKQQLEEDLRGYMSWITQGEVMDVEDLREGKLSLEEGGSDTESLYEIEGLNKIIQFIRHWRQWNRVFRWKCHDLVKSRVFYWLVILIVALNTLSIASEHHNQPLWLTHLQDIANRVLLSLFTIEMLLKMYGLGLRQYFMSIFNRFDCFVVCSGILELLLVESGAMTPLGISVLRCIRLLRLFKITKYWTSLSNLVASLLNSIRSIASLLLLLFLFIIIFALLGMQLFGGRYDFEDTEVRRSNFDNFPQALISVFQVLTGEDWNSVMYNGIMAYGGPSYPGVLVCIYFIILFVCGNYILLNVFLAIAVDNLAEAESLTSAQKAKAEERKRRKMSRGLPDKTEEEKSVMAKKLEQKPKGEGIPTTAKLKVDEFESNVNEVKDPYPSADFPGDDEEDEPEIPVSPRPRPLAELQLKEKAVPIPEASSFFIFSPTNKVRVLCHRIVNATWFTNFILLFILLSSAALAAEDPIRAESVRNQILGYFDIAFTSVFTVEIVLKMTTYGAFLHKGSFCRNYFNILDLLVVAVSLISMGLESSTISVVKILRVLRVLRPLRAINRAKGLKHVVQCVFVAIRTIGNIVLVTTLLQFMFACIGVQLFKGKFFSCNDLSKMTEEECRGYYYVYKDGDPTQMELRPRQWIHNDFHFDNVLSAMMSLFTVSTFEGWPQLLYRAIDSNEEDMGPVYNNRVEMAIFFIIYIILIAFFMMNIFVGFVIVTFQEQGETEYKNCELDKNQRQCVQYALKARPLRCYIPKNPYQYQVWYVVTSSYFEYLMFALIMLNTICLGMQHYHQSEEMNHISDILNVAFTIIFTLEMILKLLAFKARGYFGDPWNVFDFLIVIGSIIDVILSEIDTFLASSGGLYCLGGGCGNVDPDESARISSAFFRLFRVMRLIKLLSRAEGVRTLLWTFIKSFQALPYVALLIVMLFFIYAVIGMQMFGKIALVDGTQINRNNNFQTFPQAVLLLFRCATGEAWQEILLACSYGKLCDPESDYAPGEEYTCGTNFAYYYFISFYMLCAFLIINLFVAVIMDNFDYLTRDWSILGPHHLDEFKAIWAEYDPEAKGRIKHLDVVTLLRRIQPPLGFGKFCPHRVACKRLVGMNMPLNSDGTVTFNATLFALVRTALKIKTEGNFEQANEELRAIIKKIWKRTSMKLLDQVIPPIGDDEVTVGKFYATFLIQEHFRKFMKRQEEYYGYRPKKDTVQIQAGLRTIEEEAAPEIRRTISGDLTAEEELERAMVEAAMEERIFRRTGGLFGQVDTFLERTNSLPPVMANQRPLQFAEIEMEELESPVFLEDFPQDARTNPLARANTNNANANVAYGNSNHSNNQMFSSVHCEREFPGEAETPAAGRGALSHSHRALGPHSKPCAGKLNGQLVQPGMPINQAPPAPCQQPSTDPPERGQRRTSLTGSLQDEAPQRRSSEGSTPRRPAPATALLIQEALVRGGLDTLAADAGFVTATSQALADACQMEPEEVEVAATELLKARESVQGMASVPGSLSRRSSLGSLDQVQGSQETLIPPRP
T2 sequence (P13806 27-960 partner limits assumed): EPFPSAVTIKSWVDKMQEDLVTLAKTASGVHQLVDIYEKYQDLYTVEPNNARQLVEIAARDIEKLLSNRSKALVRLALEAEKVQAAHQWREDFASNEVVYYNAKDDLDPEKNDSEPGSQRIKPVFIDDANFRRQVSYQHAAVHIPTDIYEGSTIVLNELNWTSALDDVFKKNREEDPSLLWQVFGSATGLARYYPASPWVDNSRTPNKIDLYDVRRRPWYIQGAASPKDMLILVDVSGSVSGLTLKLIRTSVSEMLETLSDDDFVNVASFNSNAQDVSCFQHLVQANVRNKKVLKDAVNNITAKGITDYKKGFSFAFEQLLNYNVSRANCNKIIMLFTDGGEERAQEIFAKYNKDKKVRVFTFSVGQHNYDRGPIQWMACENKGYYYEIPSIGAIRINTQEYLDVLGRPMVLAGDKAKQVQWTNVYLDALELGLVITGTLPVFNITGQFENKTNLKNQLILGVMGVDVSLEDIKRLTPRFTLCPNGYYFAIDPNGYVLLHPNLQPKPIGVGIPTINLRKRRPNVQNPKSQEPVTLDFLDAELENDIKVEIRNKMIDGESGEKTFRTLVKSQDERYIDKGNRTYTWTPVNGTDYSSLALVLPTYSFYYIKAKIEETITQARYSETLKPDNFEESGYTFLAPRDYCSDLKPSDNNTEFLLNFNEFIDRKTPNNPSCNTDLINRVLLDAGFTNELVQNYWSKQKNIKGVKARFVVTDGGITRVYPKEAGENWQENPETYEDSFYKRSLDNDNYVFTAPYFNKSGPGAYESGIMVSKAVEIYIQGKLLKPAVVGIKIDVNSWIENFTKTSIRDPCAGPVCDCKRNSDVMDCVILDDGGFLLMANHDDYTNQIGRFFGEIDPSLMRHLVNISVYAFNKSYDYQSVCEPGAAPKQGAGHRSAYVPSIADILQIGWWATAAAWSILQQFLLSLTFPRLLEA
T2 sequence (P13806 961-1106 partner limits assumed): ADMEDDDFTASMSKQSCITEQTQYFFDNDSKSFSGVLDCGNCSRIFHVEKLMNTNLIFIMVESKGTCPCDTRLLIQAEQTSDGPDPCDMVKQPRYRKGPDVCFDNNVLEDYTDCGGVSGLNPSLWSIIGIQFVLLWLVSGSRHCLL
T2 sequence (P19517 whole entry partner): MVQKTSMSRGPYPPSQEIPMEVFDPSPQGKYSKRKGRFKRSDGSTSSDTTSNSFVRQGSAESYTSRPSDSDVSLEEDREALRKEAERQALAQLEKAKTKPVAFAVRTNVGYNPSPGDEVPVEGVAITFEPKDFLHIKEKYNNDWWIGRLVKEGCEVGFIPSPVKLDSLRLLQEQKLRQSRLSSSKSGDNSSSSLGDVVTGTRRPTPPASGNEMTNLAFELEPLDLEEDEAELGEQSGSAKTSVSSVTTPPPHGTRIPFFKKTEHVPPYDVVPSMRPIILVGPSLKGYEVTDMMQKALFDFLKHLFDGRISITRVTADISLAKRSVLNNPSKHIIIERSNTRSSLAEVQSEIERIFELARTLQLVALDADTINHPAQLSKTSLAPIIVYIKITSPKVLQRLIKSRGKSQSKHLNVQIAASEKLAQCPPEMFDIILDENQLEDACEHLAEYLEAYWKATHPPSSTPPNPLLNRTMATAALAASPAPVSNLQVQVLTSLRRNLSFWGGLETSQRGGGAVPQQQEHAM
T2 sequence (P19518 whole entry partner): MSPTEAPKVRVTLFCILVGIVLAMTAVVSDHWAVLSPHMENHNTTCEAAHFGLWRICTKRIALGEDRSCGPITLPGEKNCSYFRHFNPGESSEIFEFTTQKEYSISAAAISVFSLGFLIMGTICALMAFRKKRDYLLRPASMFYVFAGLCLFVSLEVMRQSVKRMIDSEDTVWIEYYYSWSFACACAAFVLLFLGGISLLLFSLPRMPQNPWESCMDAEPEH

As for `COc1cccc(CCN(C)CCCC(C#N)(c2ccc(OC)c(OC)c2)C(C)C)c1` (centres unmarked) [Example D888, reference compound], the IC50 at type L calcium channels [1] turned out to be 2.5 nM; at type L Ca^2+ channel, 23 nM.

Consider `COc1ccc(CSC2CCN(CCCCCSc3cc(C(C)(C)C)c(O)c(C(C)(C)C)c3)CC2)c(OC)c1OC` [Example 20, 4-(2,3,4-trimethoxybenzylthio)-1-[5-(3,5-di-tert.butyl-4-hydroxyphenylthio)pentyl]piperidine], for which, in the assay on human LDL's, the IC50 came out at 1000 nM.

As to `COc1ccc(CSC2CCN(CC(O)COc3cc(C(C)(C)C)c(O)c(C(C)(C)C)c3)CC2)c(OC)c1OC` (centres unmarked) [Example 17, 4-(2,3,4-trimethoxybenzylthio)-1-[3-(3,5-di-tert.-butyl-4-hydroxyphenoxy)-2-hydroxypropyl]piperidine], in the assay on human LDL's, the IC50 stood at 2000 nM.

Take `COc1ccc(CN2CCNCC2)c(OC)c1OC` [Trimetazidine, 2 HCl, trimetazidine dihydrochloride, reference compound]: the IC50 was more than 100000 nM on type L calcium channels [1], more than 100000 nM on Beta adrenergic β and more than 100 µM at type L calcium channels [2]. In addition, the activity at 20 µM with cardiac cells [3] (setting [5]) was determined as 94.6%. Further, the activity at 100 µM with cardiac cells [3] (setting [5]) came to 75.8%. Besides, the activity at 500 µM with cardiac cells [3] (setting [5]) was found to be 58.3%. Moreover, the inhibition at 500 µM in the assay on cardiac cells [3] (read-out: protection of cell population subjected to intracellular acidosis) is 42%.

For the compound `COc1ccc(CSC2CCN(Cc3cc(C(C)(C)C)c(O)c(C(C)(C)C)c3)CC2)c(OC)c1OC` [Example 13, 4-(2,3,4-trimethoxybenzylthio)-1-(3,5-di-tert.-butyl-4-hydroxybenzyl)piperidine], in the assay with cardiac cells [4], the “protection of cardiac cells with respect to oxidative necrosis (in words)” value is reported as “markedly superior to the anti-oxidant reference products” and the inhibition at 1 µM was not below 50%. The activity at 10 µM in the assay on cardiac cells [4] (10^-5 M) came to 16.1 ± 5.6%. Also, the activity at 1 µM in the assay with cardiac cells [4] (10^-6 M) came to 52.4 ± 18.2%. Further, in the assay on cardiac cells [4] (10^-7 M), the activity at 0.1 µM amounted to 75.7 ± 19.7%. Moreover, the IC50 in the assay on human LDL's was 3000 nM.

Regarding `COc1ccc(CSC2CCN(CCCOc3cc(C(C)(C)C)c(O)c(C(C)(C)C)c3)CC2)c(OC)c1OC` [Example 14, 4-(2,3,4-trimethoxybenzylthio)-1-[3-(3,5-di-tert.-butyl-4-hydroxyphenoxy)propyl]piperidine], in the assay on human LDL's, the IC50 was found to be 1000 nM.

Turning to `COc1ccc(CSC2CCN(CCCc3cc(C(C)(C)C)c(O)c(C(C)(C)C)c3)CC2)c(OC)c1OC` [Example 15, 4-(2,3,4-trimethoxybenzylthio)-1-[3-(3,5-di-tert.-butyl-4-hydroxyphenyl)propyl]piperidine], the IC50 in the assay with human LDL's worked out at 3000 nM.

`COc1ccc(CSC2CCN(CCCCCOc3cc(C(C)(C)C)c(O)c(C(C)(C)C)c3)CC2)c(OC)c1OC` [Example 21, 4-(2,3,4-trimethoxybenzylthio)-1-[5-(3,5-di-tert.-butyl-4-hydroxyphenoxy)pentyl]piperidine]: in the assay with human LDL's, the IC50 came out at 800 nM.

For `COc1ccc(CSC2CCN(CC(O)CSc3cc(C(C)(C)C)c(O)c(C(C)(C)C)c3)CC2)c(OC)c1OC` (centres unmarked) [Example 16, 4-(2,3,4-trimethoxybenzylthio)-1-[3-(3,5-di-tert.-butyl-4-hydroxyphenylthio)-2-hydroxypropyl]piperidine], the IC50 in the assay on human LDL's worked out at 3000 nM.

In the case of vitamin E [reference compound], the necrosis index with cardiac cells [4] (10^-5 M, 10 µM) was determined as 54.9 ± 11.3; in the assay with cardiac cells [4] (10^-6 M, 1 µM), 87.6 ± 5.7; with cardiac cells [4] (10^-7 M, 0.1 µM), 97.1 ± 2.6. The IC50 in the assay on human LDL's is more than 100000 nM.

Consider `CC(C)(Sc1cc(C(C)(C)C)c(O)c(C(C)(C)C)c1)Sc1cc(C(C)(C)C)c(O)c(C(C)(C)C)c1` [Probucol, reference compound], for which, in the assay on cardiac cells [4] (10^-5 M), the activity at 10 µM amounted to 68 ± 0.9%. The activity at 1 µM in the assay with cardiac cells [4] (10^-6 M) came to 95 ± 1.7%. The IC50 with human LDL's was 3000 nM.

As for `COc1ccc(CSC2CCN(CCCSc3cc(C(C)(C)C)c(O)c(C(C)(C)C)c3)CC2)c(OC)c1OC` [Example 18, 4-(2,3,4-trimethoxybenzylthio)-1-[3-(3,5-di-tert.butyl-4-hydroxyphenylthio)propyl]piperidine], the IC50 in the assay with human LDL's was 2000 nM.

For the compound `COC(=O)[C@@H]1[C@H]2C[C@H]3c4[nH]c5ccccc5c4CCN3C[C@@H]2CC[C@@H]1O` [Yohimbine, reference compound], the IC50 on Alpha adrenergic α2 was found to be 31 nM.

On to `C=CCc1ccccc1OCC(O)CNC(C)C` (centres unmarked) [Alprenolol], for which the IC50 at Beta adrenergic β stood at 2.1 nM.

For `COc1ccc(CSC2CCN(CCCOc3cc(C)c(O)c(C)c3C)CC2)c(OC)c1OC` [Example 19, 4-(2,3,4-trimethoxybenzylthio)-1-[3-(2,3,5-trimethyl-4-hydroxyphenoxy)propyl]piperidine], in the assay with cardiac cells [4], the “protection of cardiac cells with respect to oxidative necrosis (in words)” value is on record as “markedly superior to the anti-oxidant reference products” and the inhibition at 1 µM was not below 50%. The activity at 10 µM in the assay on cardiac cells [4] (10^-5 M) worked out at 7.9 ± 4.1%. Also, in the assay on cardiac cells [4] (10^-6 M), the activity at 1 µM turned out to be 38.4 ± 13.7%. Also, the activity at 0.1 µM in the assay on cardiac cells [4] (10^-7 M) was 86 ± 11.5%. Besides, the “protection of human LDL's with respect to oxidative modification (in words)” value in the assay with human LDL's (copper sulphate) is recorded as “greater ability”. Further, in the assay with human LDL's, the IC50 was found to be 300 nM.

(Values after patent publication US5126356A, “Piperidine compounds” (Adir et Compagnie, priority 1989, dated 1992).)
